Three compounds from PubChem BioAssay AID877 (University of Pittsburgh Molecular Library Screening Center, 2007) can be followed below.

For the test, the target named is Serine/threonine-protein kinase PLK1 (Homo sapiens) (UniProt P53350). The experiment in a line: Plk1 polo box domain binding inhibitors, dose response, biochemical, fluorescence polarization (AID 877). The note with it: Plk1 PBD phosphopeptide binding.

The source made the active and inactive calls. The rule behind the calls is not given here.

Sequence of Serine/threonine-protein kinase PLK1 (Homo sapiens) (P53350 whole entry, looked up, the tested form may be a part): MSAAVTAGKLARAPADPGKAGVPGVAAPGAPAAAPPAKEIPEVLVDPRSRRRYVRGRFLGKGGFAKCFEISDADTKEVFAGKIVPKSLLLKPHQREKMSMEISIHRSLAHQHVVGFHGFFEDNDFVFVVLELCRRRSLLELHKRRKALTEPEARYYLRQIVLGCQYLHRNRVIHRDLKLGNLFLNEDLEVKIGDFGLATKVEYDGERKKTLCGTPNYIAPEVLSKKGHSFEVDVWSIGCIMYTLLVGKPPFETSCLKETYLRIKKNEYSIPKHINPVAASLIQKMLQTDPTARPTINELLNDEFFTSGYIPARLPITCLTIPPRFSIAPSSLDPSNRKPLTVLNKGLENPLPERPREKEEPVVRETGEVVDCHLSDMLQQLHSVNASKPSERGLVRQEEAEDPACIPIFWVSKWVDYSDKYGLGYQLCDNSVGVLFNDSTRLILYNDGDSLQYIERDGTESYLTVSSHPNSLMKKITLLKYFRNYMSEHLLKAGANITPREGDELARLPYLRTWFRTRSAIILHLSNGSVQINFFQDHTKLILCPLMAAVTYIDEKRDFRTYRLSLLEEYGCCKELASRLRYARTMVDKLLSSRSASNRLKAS

Turning to `O=C1C(C2=C(O)c3ccccc3C2=O)=Nc2ccccc21`, the IC50 is > 50 µM (inactive).

Turning to `CCC(Sc1nc2n[nH]c(C)c2c(=N)n1-c1cccc(Cl)c1)C(=O)NCCOC` (stereo not drawn), the IC50 is > 50 µM (inactive). For the compound `O=C(O)COc1ccc(Br)cc1/C=N/O`, the IC50 is > 50 µM (inactive).
